# Where “and” joins values, the source holds several entries; their conditions need not be identical. Equal values may be shown once.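 Interpolation was linear, between the two tested concentrations surrounding the appropriate level; five concentrations were tested over 48 hours in 96-well plates. GI50 marks 50% less growth. TGI: concentration producing complete growth inhibition.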
# Legend:
# Experiment in all cases: NCI tumour cell line growth inhibition, 48 h
# [1] = test system: CAKI-1 renal
# [2] = test system: MOLT-4 leukemia
# [3] = test system: RPMI-8226 leukemia
# [4] = test system: SR leukemia
# [5] = test system: HOP-62 NSCLC
# [6] = test system: HL-60(TB) leukemia
# [7] = test system: UACC-257 melanoma
# [8] = test system: HT29 colon
# [9] = test system: OVCAR-4 ovarian
# [10] = test system: LOX IMVI melanoma
Structure (SMILES),GI50 [1],TGI [1],GI50 [2],TGI [2],GI50 [3],TGI [3],GI50 [4],TGI [4],GI50 [5],TGI [5],GI50 [6],TGI [6],GI50 [7],TGI [7],GI50 [8],TGI [8],GI50 [9],TGI [9],GI50 [10],TGI [10]
COc1ccc2[nH]c(=O)c(/C=C/C(=O)/C=C/c3ccc(O)c(OC)c3)cc2c1,1.71 µM,3.1 µM,2.93 µM,> 100 µM,0.359 µM,1.65 µM,0.381 µM,> 100 µM,2.03 µM,4.75 µM,2.24 µM,> 100 µM,1.58 µM,3.09 µM,0.777 µM,2.12 µM,2.91 µM,29.4 µM,1.54 µM,3.18 µM
O=C(NNc1ccccc1)OCc1ccccc1,1.02 µM,14.2 µM,5.89 µM,> 100 µM,17.3 µM,> 100 µM,41.3 µM,> 100 µM,84.5 µM,> 100 µM,3.55 µM,58.7 µM,18.5 µM,> 100 µM,54.6 µM,> 100 µM,18.6 µM,> 100 µM,15.2 µM,> 100 µM
CN1CCN(Cc2ccc(NC(=O)c3nc4ccc5[nH]ncc5c4c4c3CCC4)cc2C(F)(F)F)CC1,0.815 µM,1.56 µM,1.1 µM,2.58 µM,1.14 µM,2.82 µM,1.1 µM,2.68 µM,0.867 µM,1.71 µM,1.06 µM,2.28 µM,0.99 µM,2.01 µM,1.02 µM,2.08 µM,0.911 µM,1.98 µM,0.832 µM,1.54 µM
N#CCN1CCOCCOCCN(CC#N)CCOCCOCC1,,> 100 µM,,> 100 µM,,> 100 µM,,> 100 µM,,> 100 µM,,> 100 µM,,> 100 µM,,> 100 µM,,> 100 µM,,> 100 µM
CCN(C(=O)CCl)C(C)(C)C(SSSC(c1ccc(Cl)cc1)C(C)(C)N(CC)C(=O)CCl)c1ccc(Cl)cc1 (configuration not stated),4.09 µM,15.4 µM,4.46 µM,13.9 µM,3.99 µM,18.2 µM,2.32 µM,5.15 µM,8.33 µM,23.4 µM,2.1 µM,7.92 µM,1.82 µM,3.48 µM,2.65 µM,8.23 µM,5.04 µM,19.6 µM,3.1 µM,10.7 µM
CCOC(=O)N1N=NC2C3OC(C[C@@]3(C#N)OC(C)=O)[C@H]21 (some centres not stated),,> 100 µM,,> 100 µM,,> 100 µM,,> 100 µM,,> 100 µM,,> 100 µM,,> 100 µM,,> 100 µM,,> 100 µM,,> 100 µM
O=C1c2ccccc2-c2n[nH]c3cccc1c23,2.98 µM,18.2 µM and 22.6 µM,7.85 µM,> 100 µM,14.1 µM,> 100 µM,9.01 µM,> 100 µM,32.1 µM,> 100 µM,9.8 µM,> 100 µM,,> 100 µM,12.9 µM,> 100 µM,20.2 µM,> 100 µM,6.04 µM,> 100 µM and 34.2 µM
Cc1ccc(N=Nc2c(N)nn(-c3ccccc3)c2N)cc1,1.28 µM,> 23.1 µM,1.07 µM,> 100 µM,1.61 µM,42 µM,0.378 µM,> 100 µM,2.49 µM,,0.638 µM,> 21.6 µM,42.9 µM,> 100 µM,0.353 µM,,> 40.7 µM,> 100 µM,5.78 µM,> 100 µM
S=C=NCc1ccccc1,,4.26 µM,,4.37 µM,,> 100 µM,,12.1 µM,,11.7 µM,,3.95 µM,,15.2 µM,,> 31.3 µM,,13.8 µM,,> 22.5 µM
C=CC(=O)N1CCC([C@@H]2CCNc3c(C(N)=O)c(-c4ccc(Oc5ccccc5)cc4)nn32)CC1,10.4 µM,44.7 µM,15.9 µM,> 93.6 µM,14.5 µM,42.8 µM,23.9 µM,> 100 µM,16.9 µM,> 75.1 µM,15.5 µM,49.7 µM,16.5 µM,50.4 µM,16.5 µM,> 71.1 µM,13.5 µM,97.2 µM,15.2 µM,36.3 µM
CC(=O)C1C(=O)C(=O)N(c2ccccc2N2C(=O)C(=O)C(C(C)=O)C2=O)C1=O (configuration not stated),,> 100 µM,,> 100 µM,,> 100 µM,,> 100 µM,,> 100 µM,,> 100 µM,,> 100 µM,,> 100 µM,,> 100 µM,,> 100 µM
CC1(C)CC(OCCCC[P+](c2ccccc2)(c2ccccc2)c2ccccc2)CC(C)(C)N1O,1.19 µM,4.01 µM,0.34 µM,4.12 µM,0.019 µM,0.133 µM,0.273 µM,1.54 µM,0.44 µM,2.1 µM,0.125 µM,0.421 µM,0.307 µM,0.977 µM,0.34 µM,7.26 µM,0.32 µM,4.32 µM,0.317 µM,1.25 µM
CCN(CC)CCCOc1cc(O)c2c(=O)cc(-c3ccccc3)oc2c1,13.9 µM,38.8 µM,3.29 µM,8.71 µM,9.71 µM,28.4 µM,3.44 µM,9.39 µM,5.29 µM,19.4 µM,3.98 µM,15.3 µM,3.4 µM,12.5 µM,2.36 µM,12.7 µM,5.94 µM,25.1 µM,3.75 µM,14.1 µM
Cc1ccc(S(=O)(=O)SCc2ccccc2CSS(=O)(=O)c2ccc(C)cc2)cc1,,58.5 µM,,43.9 µM,,43.1 µM,,43.5 µM,,> 100 µM,,34.7 µM,,> 100 µM,,52.9 µM,,33.9 µM,,29.4 µM
COc1cc2c(c(OC)c1OC)-c1ccc(SC)c(=O)cc1[C@@H](NCc1cccc(C#N)c1)CC2,,> 75 µM,< 0.0075 µM,69.2 µM,< 0.0075 µM,40.7 µM,,12.2 µM,< 0.0075 µM,> 75 µM,< 0.0075 µM,,6.18 µM,> 75 µM,< 0.0075 µM,0.0348 µM and < 0.0075 µM,,> 75 µM,< 0.0075 µM,16.6 µM
CC(=O)Nc1ccccc1-c1cnc2ccccc2n1,,> 100 µM,,> 100 µM,,> 100 µM,,> 100 µM,,> 100 µM,,> 100 µM,,> 100 µM,,> 100 µM,,> 100 µM,,> 100 µM
COc1ccc(/C=C/C(=O)c2ccc3cc(OC)c(OC)cc3c2)cc1OC,4.29 µM,65.4 µM,3.07 µM,9.53 µM,1.9 µM,5.07 µM,1.69 µM,> 100 µM,3.92 µM,22.1 µM,3.46 µM,10.1 µM,6.14 µM,22.6 µM,2.97 µM,9.47 µM,3.5 µM,36.7 µM,2.95 µM,11.2 µM
COC(=O)c1ccc2c(c1)C(=O)c1c-2n(CCCN)c(=O)c2cc([N+](=O)[O-])ccc12,< 0.01 µM,1.36 µM,< 0.01 µM,0.833 µM,< 0.01 µM,0.117 µM,< 0.01 µM,0.367 µM,< 0.0161 µM,0.532 µM,< 0.0194 µM,1.39 µM,0.234 µM,1.23 µM,< 0.0236 µM,0.436 µM,,0.647 µM,< 0.0115 µM,0.154 µM
CC(=O)OC1C/C(C)=C/CCC(C)/C=C/C2(C)CCC(C(C)(C)O)C12 (configuration not stated),,> 100 µM,,> 100 µM,,71.7 µM,,47.2 µM,,> 100 µM,,55.5 µM,,> 100 µM,,> 100 µM,,> 100 µM,,> 100 µM
COc1cc(Cn2ccc3c2-c2oncc2CC3)cc(OC)c1,2.79 µM,39.5 µM,4.09 µM,> 100 µM,4.98 µM,50.3 µM,0.851 µM,31.1 µM,4.4 µM,> 100 µM,2.22 µM,8.94 µM,6.72 µM,91.1 µM,3.17 µM,> 100 µM,16.4 µM,> 100 µM,4.83 µM,> 100 µM
